# Laboratory results reported in ChEMBL document CHEMBL1201862, “PubChem BioAssay data set” (2004).
#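 Values below derive from 48-hour exposures of cells grown in 96-well plates, with endpoints linearly interpolated between the two concentrations bracketing the appropriate inhibition level. GI50 is the concentration that inhibits growth by half.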 Active and inactive are the calls of the source. Rule as the data show it: active = GI50 up to about 1.1 µM and inactive = higher.
# Tests used:
# Assay in all cases: NCI tumour cell line growth inhibition, 48 h
# [1] = system: 786-0
# [2] = system: A498
# [3] = system: A549
# [4] = system: ACHN
# [5] = system: CCRF-CEM
# [6] = system: COLO 205
# [7] = system: DLD-1
# [8] = system: DMS-273
# [9] = system: EKVX
# [10] = system: HCC 2998
# [11] = system: HCT-116
# [12] = system: HCT-15
# [13] = system: HOP-62
# [14] = system: HOP-92
# [15] = system: HT-29
# [16] = system: IGROV-1
# [17] = system: K562
# [18] = system: KM-20L2
# [19] = system: KM12
# [20] = system: LOX IMVI
# [21] = system: LXFL 529
# [22] = system: M14
# [23] = system: MOLT-4
# [24] = system: Malme-3M
# [25] = system: NCI-H23
# [26] = system: NCI-H460
# [27] = system: NCI-H522
# [28] = system: OVCAR-3
# [29] = system: OVCAR-4
# [30] = system: OVCAR-5
# [31] = system: OVCAR-8
# [32] = system: RPMI-8226
# [33] = system: RXF 631
# [34] = system: SF-268
# [35] = system: SF-295
# [36] = system: SF-539
# [37] = system: SK-MEL-28
# [38] = system: SK-MEL-2
# [39] = system: SK-MEL-5
# [40] = system: SK-OV-3
# [41] = system: SN12C
# [42] = system: SNB-19
# [43] = system: SNB-75
# [44] = system: SNB-78
# [45] = system: SW-620
# [46] = system: TK-10
# [47] = system: U-251
# [48] = system: UACC-257
# [49] = system: UACC-62
# [50] = system: UO-31
# [51] = system: XF498
# [52] = system: CAKI-1
# [53] = system: DMS-114
# [54] = system: HL-60
# [55] = system: M19-MEL
# [56] = system: NCI-H226
# [57] = system: SR
structure (smiles),measurement,setting,value
O=C(O)c1c2c(cc3c(=O)cc(-c4ccccc4)oc13)CCCC2,GI50,[1],> 100 µM (inactive)
same,GI50,[2],> 100 µM (inactive)
same,GI50,[3],> 100 µM (inactive)
same,GI50,[4],> 100 µM (inactive)
same,GI50,[5],> 100 µM (inactive)
same,GI50,[6],> 100 µM (inactive)
same,GI50,[7],> 100 µM (inactive)
same,GI50,[8],> 100 µM (inactive)
same,GI50,[9],> 100 µM (inactive)
same,GI50,[10],> 100 µM (inactive)
same,GI50,[11],> 100 µM (inactive)
same,GI50,[12],> 100 µM
same,GI50,[13],> 100 µM (inactive)
same,GI50,[14],> 100 µM (inactive)
same,GI50,[15],> 100 µM (inactive)
same,GI50,[16],> 100 µM (inactive)
same,GI50,[17],> 100 µM (inactive)
same,GI50,[18],> 100 µM (inactive)
same,GI50,[19],> 100 µM (inactive)
same,GI50,[20],> 100 µM (inactive)
same,GI50,[21],> 100 µM (inactive)
same,GI50,[22],> 100 µM (inactive)
same,GI50,[23],> 100 µM (inactive)
same,GI50,[24],> 100 µM (inactive)
same,GI50,[25],> 100 µM (inactive)
same,GI50,[26],> 100 µM (inactive)
same,GI50,[27],71.4 µM (inactive)
same,GI50,[28],> 100 µM (inactive)
same,GI50,[29],> 100 µM (inactive)
same,GI50,[30],> 100 µM (inactive)
same,GI50,[31],> 100 µM (inactive)
same,GI50,[32],> 100 µM (inactive)
same,GI50,[33],> 100 µM (inactive)
same,GI50,[34],> 100 µM (inactive)
same,GI50,[35],> 100 µM (inactive)
same,GI50,[36],> 100 µM (inactive)
same,GI50,[37],> 100 µM (inactive)
same,GI50,[38],> 100 µM (inactive)
same,GI50,[39],> 100 µM (inactive)
same,GI50,[40],> 100 µM (inactive)
same,GI50,[41],> 100 µM (inactive)
same,GI50,[42],> 100 µM (inactive)
same,GI50,[43],6.59 µM (inactive)
same,GI50,[44],> 100 µM (inactive)
same,GI50,[45],> 100 µM (inactive)
same,GI50,[46],> 100 µM (inactive)
same,GI50,[47],> 100 µM (inactive)
same,GI50,[48],> 100 µM (inactive)
same,GI50,[49],> 100 µM (inactive)
same,GI50,[50],> 100 µM (inactive)
same,GI50,[51],> 100 µM (inactive)
Cc1cc(Cl)ccc1NC(=O)C1C(=O)C(=O)N(c2ccc(Cl)cc2C)C1=O (stereo not drawn),GI50,[1],> 100 µM (inactive)
same,GI50,[2],> 100 µM (inactive)
same,GI50,[3],> 100 µM (inactive)
same,GI50,[4],> 100 µM (inactive)
same,GI50,[52],> 100 µM (inactive)
same,GI50,[5],55.6 µM (inactive)
same,GI50,[6],> 100 µM (inactive)
same,GI50,[7],> 100 µM (inactive)
same,GI50,[53],25.1 µM (inactive)
same,GI50,[8],> 100 µM (inactive)
same,GI50,[9],36.8 µM (inactive)
same,GI50,[10],> 100 µM (inactive)
same,GI50,[11],43.8 µM (inactive)
same,GI50,[12],57.5 µM
same,GI50,[54],> 100 µM (inactive)
same,GI50,[13],> 100 µM (inactive)
same,GI50,[14],14.9 µM (inactive)
same,GI50,[15],96.2 µM (inactive)
same,GI50,[16],> 100 µM (inactive)
same,GI50,[17],40.6 µM (inactive)
same,GI50,[18],48.3 µM (inactive)
same,GI50,[20],> 100 µM (inactive)
same,GI50,[21],48.3 µM (inactive)
same,GI50,[22],31.2 µM (inactive)
same,GI50,[55],> 100 µM (inactive)
same,GI50,[23],24.7 µM (inactive)
same,GI50,[24],> 100 µM (inactive)
same,GI50,[56],49.8 µM (inactive)
same,GI50,[25],74.5 µM (inactive)
same,GI50,[27],60.3 µM (inactive)
same,GI50,[28],36.9 µM (inactive)
same,GI50,[29],38.6 µM (inactive)
same,GI50,[30],48.3 µM (inactive)
same,GI50,[31],56.6 µM (inactive)
same,GI50,[32],29 µM (inactive)
same,GI50,[33],68.2 µM (inactive)
same,GI50,[34],53 µM (inactive)
same,GI50,[35],95.5 µM (inactive)
same,GI50,[36],> 100 µM (inactive)
same,GI50,[37],> 100 µM (inactive)
same,GI50,[38],89.9 µM (inactive)
same,GI50,[39],> 100 µM (inactive)
same,GI50,[40],> 100 µM (inactive)
same,GI50,[41],> 100 µM (inactive)
same,GI50,[42],21 µM (inactive)
same,GI50,[43],> 100 µM (inactive)
same,GI50,[44],76 µM (inactive)
same,GI50,[45],> 100 µM (inactive)
same,GI50,[46],> 100 µM (inactive)
same,GI50,[47],57.3 µM (inactive)
same,GI50,[48],> 100 µM (inactive)
same,GI50,[49],63.2 µM (inactive)
same,GI50,[50],75.7 µM (inactive)
COc1ccc2nc3cc(Cl)ccc3c(NCCC(=O)OCC(O)C(O)C(O[C@H](C)C(=O)NC(C)C(=O)NC(CCC(N)=O)C(=O)OCc3ccccc3)C(C=O)NC(C)=O)c2c1 (stereo partly drawn),GI50,[1],16.9 µM (inactive)
same,GI50,[2],21 µM (inactive)
same,GI50,[3],17.4 µM (inactive)
same,GI50,[4],18.1 µM (inactive)
same,GI50,[52],20.2 µM (inactive)
same,GI50,[5],23.2 µM (inactive)
same,GI50,[6],18.3 µM (inactive)
same,GI50,[7],17.4 µM (inactive)
same,GI50,[8],14.2 µM (inactive)
same,GI50,[9],18.4 µM (inactive)
same,GI50,[10],17.7 µM (inactive)
same,GI50,[11],18 µM (inactive)
same,GI50,[12],20.7 µM
same,GI50,[54],25.1 µM (inactive)
same,GI50,[13],16.1 µM (inactive)
same,GI50,[14],17.8 µM (inactive)
same,GI50,[15],17.8 µM (inactive)
same,GI50,[16],16 µM (inactive)
same,GI50,[17],14 µM (inactive)
same,GI50,[18],17.2 µM (inactive)
same,GI50,[19],19.1 µM (inactive)
same,GI50,[21],17.3 µM (inactive)
same,GI50,[22],19.5 µM (inactive)
same,GI50,[55],18 µM (inactive)
same,GI50,[23],15.4 µM (inactive)
same,GI50,[24],> 100 µM (inactive)
same,GI50,[56],22.5 µM (inactive)
same,GI50,[25],14.4 µM (inactive)
same,GI50,[26],16.2 µM (inactive)
same,GI50,[27],14.5 µM (inactive)
same,GI50,[28],19.2 µM (inactive)
same,GI50,[29],20 µM (inactive)
same,GI50,[30],23.8 µM (inactive)
same,GI50,[31],16 µM (inactive)
same,GI50,[33],19.6 µM (inactive)
same,GI50,[34],17.9 µM (inactive)
same,GI50,[35],18.2 µM (inactive)
same,GI50,[36],16.8 µM (inactive)
same,GI50,[37],17.7 µM (inactive)
same,GI50,[38],21.1 µM (inactive)
same,GI50,[39],16.6 µM (inactive)
same,GI50,[40],18.8 µM (inactive)
same,GI50,[41],16.1 µM (inactive)
same,GI50,[42],24.7 µM (inactive)
same,GI50,[43],16.1 µM (inactive)
same,GI50,[44],32.5 µM (inactive)
same,GI50,[57],4.03 µM (inactive)
same,GI50,[45],15 µM (inactive)
same,GI50,[46],22.8 µM (inactive)
same,GI50,[47],18.2 µM (inactive)
same,GI50,[48],95.7 µM (inactive)
same,GI50,[49],17.9 µM (inactive)
same,GI50,[50],20.5 µM (inactive)
same,GI50,[51],18.5 µM (inactive)
